In ChEMBL document CHEMBL4665890, “N-Trifluoromethyl Amines and Azoles: An Underexplored Functional Group in the Medicinal Chemist's Toolbox” (J Med Chem, 2020):

Assays:
[1] = in vitro; details: human, liver microsomes
Description: Metabolic stability in human liver microsomes

[2] = physchem; details: 0.1 M HCl solution, pH 1
Description: Half life in 0.1 M HCl solution at pH 1.0 at 25 degC by UPLC analysis

[3] = physchem; details: 20 mM sodium phosphate buffer, pH 7.4
Description: Half life in 20 mM sodium phosphate buffer at pH 7.4 at 25 degC by UPLC analysis

[4] = physchem; details: 20 mM sodium carbonate buffer, pH 10
Description: Half life in 20 mM sodium carbonate buffer at pH 10 at 25 degC by UPLC analysis

[5] = physchem; details: buffer, pH 7.4
[6] = physchem; details: buffer, pH 7.4; remark: listed apart in the source
[7] = in vitro; details: human, Caco-2
Description: Passive permeability from apical to basolateral side in human Caco-2 cells

[8] = Stability in neat DMSO at 10 mM at room temperature under air without protection from sunlight measured after 1 month by LC-MS analysis; assay type: physicochemical; details: 730 h, 10000 µM, time 1 months
[9] = Stability in neat […] DMSO/H2O 1:4 mixture assessed as compound hydrolysis at 10 mM at room temperature under air without protection from sunlight measured after 24 hrs by LC-MS analysis; assay type: physicochemical; details: read-out: Drug degradation
[10] = Stability in neat […] DMSO/H2O 1:4 mixture assessed as compound hydrolysis at 10 mM at room temperature under air without protection from sunlight measured after 0.5 hrs by LC-MS analysis; assay type: physicochemical; details: 10000 µM
[11] = physchem
Description: Dissociation constant, pKa1 of compound by spectrophotometry

[12] = Stability in presence of glutathione by LC-MS analysis; assay type: physicochemical; details: solution with glutathione
[13] = Stability in absence of glutathione by LC-MS analysis; assay type: physicochemical; details: gsh
[14] = physchem; remark: listed apart in the source
Description: Dissociation constant, pKa2 of compound by spectrophotometry

[15] = Stability in neat […] DMSO/H2O 1:4 mixture assessed as compound hydrolysis at 10 mM at room temperature under air without protection from sunlight measured after 1 month by LC-MS analysis; assay type: physicochemical; details: 730 h, 10000 µM, time 1 months
[16] = Stability in neat […] DMSO/H2O 1:4 mixture assessed as compound hydrolysis at 10 mM at room temperature under air without protection from sunlight measured after 1 month by NMR analysis; assay type: physicochemical; details: 730 h, 10000 µM, time 1 months

Structure (SMILES) | microsomal CLint [1] | logD [5] | chromatographic logD [6] | Papp A→B [7] | Stabilty [8] | further results
CC(=O)c1ccc(N2CCN(C(=O)c3cnn(C(F)(F)F)c3)CC2)cc1 | < 3 µL/min/mg | 1.9 | 2.3 | 71 ×10⁻⁶ cm/s | – | half-life [2]: 984 h; half-life [3]: > 1730 h; half-life [4]: 408 h
CN(c1ccc(C(F)(F)F)cc1)C(F)(F)F | – | – | – | – | Stable | degraded at 24 h, 10000 µM [9]: 90%
FC(F)(F)N1CCc2ccccc21 | – | – | – | – | Stable | Stabilty [10]: Unstable
COc1ccc(CC(=O)Nc2cnn(C)c2)cc1OC | < 3 µL/min/mg | 0.9 | 0.1 | 42 ×10⁻⁶ cm/s | – | –
CC(=O)c1ccc(N2CCN(C(=O)c3cnn(C(C)(C)C)c3)CC2)cc1 | < 4.5 µL/min/mg | 2.2 | 2.2 | 66 ×10⁻⁶ cm/s | – | –
CC(=O)c1ccc(N2CCN(C(=O)c3cnn(C)c3)CC2)cc1 | < 3 µL/min/mg | 1.1 | 0.6 | 42 ×10⁻⁶ cm/s | – | –
CCOC(=O)N(Cc1ccccc1)C(F)(F)F | – | – | – | – | Stable | Stabilty [10]: Unstable
FC(F)(F)n1c(-c2cscn2)nc2ccccc21 | 39 µL/min/mg | 3 | 3.3 | 58 ×10⁻⁶ cm/s | – | half-life [2]: > 1730 h; half-life [3]: > 1730 h; half-life [4]: > 1730 h; pKa [11]: < 2
CN(c1ccc(F)cc1)C(F)(F)F | – | – | – | – | Stable | –
CC(=O)c1ccc(N2CCN(C(=O)c3cnn(C(C)C)c3)CC2)cc1 | < 4.2 µL/min/mg | 1.8 | 1.5 | 40 ×10⁻⁶ cm/s | – | –
CN(C)[C@H]1CC[C@H](Nc2nc(Nc3cnn(C(C)(C)C)c3)nn3cccc23)CC1 | < 3 µL/min/mg | 1.7 | 1.5 | 11 ×10⁻⁶ cm/s | – | –
CCCc1nn(C)c2c(=O)[nH]c(-c3cc(S(=O)(=O)N4CCN(C(F)(F)F)CC4)ccc3CC)nc12 | – | > 4 | > 5.3 | – | – | half-life [2]: < 31.2 h; half-life [3]: < 19.2 h; half-life [4]: < 12 h
CN(c1ccc(C#N)cc1)C(F)(F)F | – | – | – | – | Stable | degraded at 24 h, 10000 µM [9]: 24%
CCCCN(C(=O)F)c1ccc(C(=O)OCCN(C)C)cc1 | – | – | – | – | – | half-life [12]: 1.1 h; half-life [13]: 3.95 h
CCN(c1ccccc1)C(F)(F)F | – | – | – | – | Stable | Stabilty [10]: Unstable
COc1ccc(CC(=O)Nc2cnn(C(C)(C)C)c2)cc1OC | < 4.1 µL/min/mg | 2 | 1.6 | 45 ×10⁻⁶ cm/s | – | –
Cc1ccc(-c2cn(C)cn2)cc1NC(=O)c1ccc(OCc2ccccn2)cc1 | 4.8 µL/min/mg | 2.7 | 2.2 | 72 ×10⁻⁶ cm/s | – | pKa [11]: 5.8; pKa [14]: 3.9
CCCc1nn(C)c2c(=O)[nH]c(-c3cc(S(=O)(=O)N4CCN(C)CC4)ccc3CC)nc12 | – | 2.7 | 3.3 | – | – | –

Structure (SMILES) | microsomal CLint [1] | logD [5] | chromatographic logD [6] | Papp A→B [7] | Stabilty [8] | further results
CCCCN(C)c1ccc(C(=O)OCCN(C)C)cc1 | – | 2.8 | 3.3 | – | – | –
COc1ccc(CC(=O)Nc2cnn(C(C)C)c2)cc1OC | < 3.3 µL/min/mg | 1.6 | 0.9 | 44 ×10⁻⁶ cm/s | – | –
FC(F)(F)N1CCCc2ccccc21 | – | – | – | – | Stable | Stabilty [10]: Unstable
Cc1cc(NS(=O)(=O)c2ccc(N(C)C(F)(F)F)cc2)no1 | – | 1.6 | 1.5 | – | – | half-life [2]: 4.8 h; half-life [3]: 9.6 h; half-life [4]: 7.2 h
CCCCN(c1ccc(C(=O)OCCN(C)C)cc1)C(F)(F)F | – | > 4 | 4.9 | – | – | half-life [2]: < 14.4 h; half-life [3]: < 14.4 h; half-life [4]: < 14.4 h
CN(c1ccccc1)C(F)(F)F | – | – | – | – | Stable | Stabilty [10]: Unstable
Cn1cc(Nc2nc(N[C@H]3CC[C@H](N(C)C)CC3)c3cccn3n2)cn1 | < 3 µL/min/mg | 0.6 | < 0 | 2.4 ×10⁻⁶ cm/s | – | –
Cn1c(-c2cscn2)nc2ccccc21 | 172 µL/min/mg | 2.3 | 1.5 | 72 ×10⁻⁶ cm/s | – | pKa [11]: 4.9
Cc1ccc(N(C)C(F)(F)F)cc1 | – | – | – | – | Stable | Stabilty [10]: Unstable
CC(C)n1cc(Nc2nc(N[C@H]3CC[C@H](N(C)C)CC3)c3cccn3n2)cn1 | < 3 µL/min/mg | 1.4 | 1.1 | 8.4 ×10⁻⁶ cm/s | – | –
COc1ccc(N(C)C(F)(F)F)cc1 | – | – | – | – | Stable | Stabilty [10]: Unstable
FC(F)(F)n1cnc2ccccc21 | – | – | – | – | Stable | Stabilty [15]: Stable; Stabilty [16]: Stable
CN(C)[C@H]1CC[C@H](Nc2nc(Nc3cnn(C(F)(F)F)c3)nn3cccc23)CC1 | < 3 µL/min/mg | 2.2 | 2.2 | 12 ×10⁻⁶ cm/s | – | half-life [2]: > 1730 h; half-life [3]: > 1730 h; half-life [4]: 1700 h
COc1ccc(CC(=O)Nc2cnn(C(F)(F)F)c2)cc1OC | 53 µL/min/mg | 2.4 | 2.2 | 56 ×10⁻⁶ cm/s | – | half-life [2]: 288 h; half-life [3]: > 1730 h; half-life [4]: > 1730 h
FC(F)(F)n1cccn1 | – | – | – | – | Stable | Stabilty [15]: Stable; Stabilty [16]: Stable
FC(F)(F)N1CCN(c2ccccc2)CC1 | – | – | – | – | Stable | Stabilty [10]: Unstable
Cc1cc(NS(=O)(=O)c2ccc(N(C)C)cc2)no1 | – | 0.6 | 1.3 | – | – | –
CN(c1cccc(F)c1)C(F)(F)F | – | – | – | – | Stable | –
